From PMC5411959, “Potential Antiosteoporotic Natural Product Lead Compounds That Inhibit 17β-Hydroxysteroid Dehydrogenase Type 2” (Journal of Natural Products, 2017)
Read-outs that look alike come from different tables or passages of the source.

Assays:
[1] = target: T1, human 17β-HSD2 (Homo sapiens, UniProt P37059); assay: 17β-HSD2 activity assay using lysates of HEK-293 cells expressing the recombinant human enzyme; format: biochemical; conditions: for IC50: HEK-293 lysates, 200 nM estradiol, 500 μM NAD+, 10 min 37 °C;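 as to all read-outs here: conversion of tritium-labelled estradiol (200 nM, with 500 µM NAD+, 10 min) quantified after TLC separation by scintillation counting, at least three independent measurements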
T1 construct: expressed in transfected cells; host or cells: HEK-293 (ATCC), used as cell lysate
T1 sequence (P37059 1-387): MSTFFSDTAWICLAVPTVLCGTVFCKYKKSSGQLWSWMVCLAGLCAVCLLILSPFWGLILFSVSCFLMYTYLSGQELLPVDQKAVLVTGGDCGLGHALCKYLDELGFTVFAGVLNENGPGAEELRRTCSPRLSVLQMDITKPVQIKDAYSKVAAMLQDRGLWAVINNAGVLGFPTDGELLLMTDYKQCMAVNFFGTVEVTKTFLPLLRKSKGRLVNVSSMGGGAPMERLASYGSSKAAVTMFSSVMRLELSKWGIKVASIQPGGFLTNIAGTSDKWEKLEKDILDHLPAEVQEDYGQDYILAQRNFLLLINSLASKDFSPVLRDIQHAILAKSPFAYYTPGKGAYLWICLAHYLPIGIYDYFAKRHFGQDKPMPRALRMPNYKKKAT

[2] = target: T2, human 17β-HSD1 (Homo sapiens, UniProt P14061); assay: 17β-HSD1 activity assay using lysates of HEK-293 cells expressing the recombinant human enzyme; format: biochemical; conditions: for selectivity factor: 17β-HSD1 versus 17β-HSD2; for IC50: HEK-293 lysates, 200 nM estrone, 500 μM NADPH; for remaining activity at 20 µM: read-out: 17β-HSD1 remaining activity at 20 μM; for 17β-HSD1 inhibition (in words; n.i. = no inhibition): screened at 20 μM
T2 construct: expressed in transfected cells; host or cells: HEK-293 (ATCC), used as cell lysate
T2 sequence (P14061 1-328): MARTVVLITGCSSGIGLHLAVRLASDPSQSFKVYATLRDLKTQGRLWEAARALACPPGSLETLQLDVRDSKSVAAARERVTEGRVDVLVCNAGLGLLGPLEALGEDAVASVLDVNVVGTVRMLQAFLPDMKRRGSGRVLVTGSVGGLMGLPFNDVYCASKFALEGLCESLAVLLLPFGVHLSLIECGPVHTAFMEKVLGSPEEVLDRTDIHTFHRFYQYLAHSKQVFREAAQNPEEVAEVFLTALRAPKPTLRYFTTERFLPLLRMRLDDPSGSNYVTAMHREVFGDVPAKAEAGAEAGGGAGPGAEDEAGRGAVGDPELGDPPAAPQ

[3] = tested on: 17β-HSD; parameters: method as in PMID 11731908; conditions: cited from earlier work
[4] = tested on: human ERα; parameters: method as in PMID 25106881; conditions: reported; read-out: ERα activation EC50; cited from earlier work
[5] = Compound stability in the test system (repeated and prolonged incubation, thawing-freezing cycles); format: physicochemical; conditions: prolonged incubation, IC50 in weeks 1 and 3, thawing-freezing cycles
Text: extent these PAINS should be excluded from further research. Much more data is needed to finally provide directions for the use of PAINS filters4.
Besides these general aspects of PAINS, there are of course many arguments about curcumin itself as a hit. We are aware of the compound’s many reported bioactivities observed in in vitro studies and additionally of its very poor bioavailability. However, this study is a proof of concept study identifying many natural products inhibiting 17β-HSD2 when there is direct access to the binding site and we categorize curcumin as one of them. Why? A very recent analysis of curcumin data […]
Criterion 1. Look for evidence of compound stability in assay buffer/media, including when molecular models are invoked as supporting evidence of target engagement.
We observed no significant changes in inhibition in the experimental repetition also when the incubation time was prolonged. Actually, the assay duration is only 10 minutes and the compound has direct access to the binding site when using cell […]
Criterion 2. Look for the presence of detergent and thiol-scavenging reagents in biochemical assays to mitigate the impact of chemical aggregation and nonspecific thiol reactivity. Are/were any additional counterscreens performed to rule out these phenomena? […]
reactivity would alter the enzymes activities. Also this has not been observed.

IC50 [1] [nM] | 17β-HSD1 inhibition (in words; n.i. = no inhibition) [2] | SMILES | selectivity factor [2] | IC50 [2] [nM] | also measured
940 ± 20 | – | COc1cc(C[C@@H](C)[C@H](C)Cc2ccc(O)c(OC)c2)ccc1O [compound 4, (−)-dihydroguaiaretic acid] | 8 | 7700 ± 2200 | selectivity over 17β-HSD1 ([2]; 17β-HSD2 over 17β-HSD1): ≥ 8 fold; effect on 17β-HSD activity in placenta microsomes [3]: no effects
980 ± 240 | n.i. | O=C(Cc1ccc(O)c(Cl)c1)NCCc1c[nH]c2ccccc12 [compound 17, N-(2-(1H-indol-3-yl)ethyl)-2-(3-chloro-4-hydroxyphenyl)acetamide] | – | – | –
1570 ± 160 | n.i. | O=C(Cc1ccc(O)c(Cl)c1)NCCc1ccccc1 [compound 13, 2-(3-chloro-4-hydroxyphenyl)-N-phenethylacetamide] | – | – | –
780 ± 160 | – | O=C(Cc1ccc(O)c(Cl)c1)NCc1ccccc1Cl [compound 18, 2-(3-chloro-4-hydroxyphenyl)-N-(2-chlorobenzyl)acetamide] | ∼25 | – | remaining activity at 20 µM ([2]; 20 μM compound): 54.8 ± 5.8%

SMILES | IC50 [1] [nM] | 17β-HSD1 inhibition (in words; n.i. = no inhibition) [2] | selectivity factor [2] | IC50 [2] [nM] | also measured
O=c1c(-c2ccc(O)cc2O)coc2cc(O)cc(O)c12 [compound 9, 2′-hydroxygenistein] | 2030 ± 370 | – | 0.5 | 1090 ± 60 | classification (17β-HSD2 inhibition) ([1]; flavonoid SAR model, Table 4): active; EC50 [4]: 6100 nM
COc1cc(/C=C/C(=O)CC(=O)/C=C/c2ccc(O)c(OC)c2)ccc1O [compound 3, curcumin] | 1730 ± 200 | – | ∼12 | – | IC50 values with 0.1% Triton-X100 added, versus absence of detergent ([1]; 0.1% Triton-X100 in reaction mixture): comparable; remaining activity at 20 µM [2]: 52.2 ± 7.1%; stability in the test system [5]: seemed to be stable
